In patent US11951167B2, “Targeted liposomes” (GEORGETOWN UNIVERSITY, priority 2012, dated 2024):

Assays:
[1] = test system: glioblastoma multiforme / anaplastic astrocytoma; settings: cited from earlier work
U87 cells [2] = test: XTT cell viability, Lip-TMZ vs free TMZ; type: cell-based, human
[3] = test system: U87MG-Luc xenograft brain tumors; test: Intracranial tumor growth (BLI, MRI), scL-p53 plus TMZ; type: in vivo, nude mice; settings: TMZ 5.0 mg/kg, scL-p53 30 ug DNA/mouse, i.v. 2x/week, 10 injections
Procedure: An experiment was performed to examine tumor growth inhibition induced by the sensitization of IC brain tumors to TMZ by systemic administration of scL-p53 prepared as described in U.S. Pat. No. 7,780,882. U87MG-Luc xenograft brain tumors were induced in nude mice by intracranially inoculating U87MG-luc cells. This cell line, obtained from Caliper Life Sciences, has been modified to stably express the Luciferase gene. 10 days post-inoculation, tumor-bearing animals were i.v. tail vein injected with TMZ alone (5.0 mg/kg/injection), scL-p53 alone (30 ug DNA/mouse/injection) or TMZ in combination with scL-p53. As a control, one group received PBS (vehicle). All i.v. injections were administered 2×/week to a total of 10 injections. To assess tumor response, bioluminescence imaging (BLI) was performed using IVIS® Imaging System's Xenogen. FIG. 24 is a comparison of in vivo anti-tumor efficacy of the various groups. Bioluminescence signals which correlate to tumor size are shown in a color map. Red color (at the top of the scale bar): the stronger signal, Violet color (at the bottom of the scale bar): the weaker signal. […] The horizontal bar indicates the duration of treatment (Last treatment=Day 24).
To confirm the bioluminescence findings, the mice were also imaged by MRI, without contrast agent, before and after the mice received 3 weeks of treatment. […]

U251 cells = test: XTT sensitization to TMZ by scL-p53; type: cell-based, human; settings: XTT 144 h after TMZ addition
Procedure: (§1) To assess the ability of scL delivered wtp53 to sensitize brain tumor cells to first-line chemotherapeutic agent TMZ, human brain tumor derived U87 and U251 cells were treated with TMZ alone, or the combination of TMZ plus scL-p53 (prepared as described in U.S. Pat. No. 7,780,882). As a control, cells were also treated with the combination of TMZ and the scL delivery system carrying the same vector used to construct the pSCMVp53 plasmid, but without the p53 insert (scL-vec). The cells were plated in a 96-well plate and treated 24 hours later with scL-p53 or scL-vec. 6 hours post-transfection, the TMZ was added in increasing concentrations. […] As these two cell lines are known to be sensitive to TMZ, it was not unexpected that there was some response to TMZ alone.

U87 cells [4] = test: XTT sensitization to TMZ by scL-p53; type: cell-based, human; settings: XTT 144 h after TMZ addition
Procedure: as §1

SMILES: Cn1nnc2c(C(N)=O)ncn2c1=O [TMZ, temozolomide]
- AA patients who do not benefit from TMZ ([1]; human, in vivo): 50%
- GBM patients who do not benefit from TMZ ([1]; human, in vivo): 60-75%
- median increase in survival compared to radiation alone ([1]; subset of GBM patients): 2.5 months
- cell killing effect (U87 cells [2]): virtually no cell killing effect
- IC tumor growth during treatment (BLI) [3]: some minimal effect
- sensitization/response to TMZ (U251 cells): some response
- sensitization/response to TMZ (U87 cells [4]): some response
